Assay results reported in patent US20060079550A1, “Amino acid derivatives useful for the treatment of alzheimer's disease” (priority 2001, published 2006).
Where two headings read alike, the source gives them in different places.

Biological target: aspartyl proteases, in particular, beta-secretase
Assay: Ki of the compounds listed in Tables 1 and 2 (no method described)
Assay type: biochemical
[1] = Table 1, compounds of formula Ia, W is -(CH2)n-

SMILES | Ki [1] [µM] | Ki [µM]
CC(C)CN(C(CCCCNC(=O)OCC1c2ccccc2-c2ccccc21)C(=O)O)S(=O)(=O)c1ccc(Cl)cc1 (racemic) [Compound No. 1, Nα-isobutyl-Nα-(4-chlorobenzenesulfonyl)-Nε-(9-fluorenylmethoxycarbonyl)-DL-lysine] | 0.0205 | 
Cc1ccc(S(=O)(=O)N(CC(C)C)C(CCCCNC(=O)OCC2c3ccccc3-c3ccccc32)C(=O)O)cc1 (racemic) [Compound No. 2, Nα-isobutyl-Nα-(4-methylbenzenesulfonyl)-Nε-(9-fluorenylmethoxycarbonyl)-DL-lysine] | 0.005 | 
CC(C)CN(C(CCCCNC(=O)OCC1c2ccccc2-c2ccccc21)C(=O)O)S(=O)(=O)c1ccc(F)cc1 (racemic) [Compound No. 3, Nα-isobutyl-Nα-(4-fluorobenzenesulfonyl)-Nε-(9-fluorenylmethoxycarbonyl)-DL-lysine] | 0.0174 | 
CC(C)CN(C(CCCCNC(=O)OCc1ccccc1)C(=O)O)S(=O)(=O)c1ccc(I)cc1 (racemic) [Compound No. 48, Nα-isobutyl-Nα-(4-iodobenzenesulfonyl)-Nε-benzyloxycarbonyl-DL-lysine] | > 0.1 | 
Cc1ccc(S(=O)(=O)N(CC(C)C)C(CCCCNC(=S)CCc2ccccc2)C(=O)O)cc1 (racemic) [Compound No. 153, Nα-isobutyl-Nα-(4-methylbenzenesulfonyl)-Nε-dihydrothiocinnamoyi-DL-lysine] | 0.151 | 
CC(C)CN([C@@H](CCCCNC(=O)OCC1c2ccccc2-c2ccccc21)C(=O)O)S(=O)(=O)c1ccc(Br)cc1 [Compound No. 4, Nα-isobutyl-Nα-(4-bromobenzenesulfonyl)-Nε-(9-fluorenylmethoxycarbonyl)-L-lysine] | 0.0114 | 
COc1ccc(S(=O)(=O)N(CC(C)C)[C@@H](CCCCNC(=O)OCC2c3ccccc3-c3ccccc32)C(=O)O)cc1 [Compound No. 7] | 0.0106 | 
CC(C)CN([C@@H](CCCCNC(=O)OCC1c2ccccc2-c2ccccc21)C(=O)O)S(=O)(=O)c1cccc2ccccc12 [Compound No. 8, Nα-isobutyl-Nα-(1-naphthalenesulfonyl)-Nε-(9-fluorenylmethoxycarbonyl)-L-lysine] | 0.0549 | 
CC(C)CN([C@@H](CCCCNC(=O)OCC1c2ccccc2-c2ccccc21)C(=O)O)S(=O)(=O)c1ccc(C(C)(C)C)cc1 [Compound No. 10, Nα-isobutyl-Nα-(4-tert-butylbenzenesulfonyl)-Nε-(9-fluorenylmethoxycarbonyl)-L-lysine] |  | 0.257
O=C(N[C@@H](CCNS(=O)(=O)c1ccc(Br)cc1)C(=O)O)OCC1c2ccccc2-c2ccccc21 [Compound No. 14, (S)-2-(9-fluorenylmethoxycarbonylamino)-4-(4-bromobenzenesulfonylamino)-butanoic Acid] | 49 | 
O=C(O)[C@H](CCCCNS(=O)(=O)c1ccc(Br)cc1)NS(=O)(=O)c1ccc(Br)cc1 [Compound No. 17, Nα,Nε-di-(4-bromobenzenesulfonyl)-L-lysine] | 7.7 | 
CC(C)CN(CCCC[C@H](NC(=O)OCC1c2ccccc2-c2ccccc21)C(=O)O)S(=O)(=O)c1ccc(Br)cc1 [Compound No. 21, Nα-(9-fluorenylmethoxycarbonyl)-Nε-isobutyl-Nε-(4-bromobenzenesulfonyl)-L-lysine] | 2 | 
O=C(N[C@@H](CCCCNS(=O)(=O)c1cccc2cccnc12)C(=O)O)OCC1c2ccccc2-c2ccccc21 [Compound No. 28, Nε-(8-quinolinesulfonyl)-Nα-(9-fluorenylmethoxycarbonyl)-L-lysine] | 15 | 
O=C(Cc1c[nH]c2ccccc12)N[C@@H](CCCCNS(=O)(=O)c1ccc(Br)cc1)C(=O)O [Compound No. 29, Nα-(3-indoleacetyl)-Nε-(4-bromobenzenesulfonyl)-L-lysine] | 10.5 | 
O=C(N[C@@H](CCCCNS(=O)(=O)Cc1ccccc1)C(=O)O)OCC1c2ccccc2-c2ccccc21 [Compound No. 33, Nε-phenylmethylsulfonyl-Nα-(9-fluorenylmethoxycarbonyl)-L-lysine] | 20 | 
O=C(N[C@@H](CCCCNS(=O)(=O)c1ccc(Br)cc1)C(=O)O)C(c1ccccc1)c1ccccc1 [Compound No. 36, Nα-(diphenylacetyl)-Nε-(4-bromobenzenesulfonyl)-L-lysine] | 24 | 
O=C(O)[C@H](CCCCNS(=O)(=O)c1ccc(Br)cc1)NC(=O)C(O)(c1ccccc1)c1ccccc1 [Compound No. 37, Nα-(diphenylhydroxyacetyl)-Nε-(4-bromobenzenesulfonyl)-L-lysine] | 54 | 
Cc1ccc(S(=O)(=O)N(Cc2ccccc2)[C@@H](CCCCNC(=O)OCC2c3ccccc3-c3ccccc32)C(=O)O)cc1 [Compound No. 40, Nα-benzyl-Nα-(4-methylbenzenesulfonyl)-Nε-(9-fluorenylmethoxycarbonyl)-L-lysine] | 0.0196 | 
CC(C)CN(CCC[C@H](NC(=O)OCC1c2ccccc2-c2ccccc21)C(=O)O)S(=O)(=O)c1ccc(Br)cc1 [Compound No. 41, Nα-(9-fluorenylmethoxycarbonyl)-Nδ-isobutyl-Nδ-(4-bromobenzenesulfonyl)-L-ornithine] | > 50 | 

Further lines, with some results ahead:

Ki [1] [µM] | SMILES | Ki [µM]
0.18 | Cc1ccc(S(=O)(=O)N(CC(C)C)C(CCCNC(=O)OCC2c3ccccc3-c3ccccc32)C(=O)O)cc1 (racemic) [Compound No. 6, Nα-isobutyl-Nα-(4-methylbenzenesulfonyl)-Nδ-(9-fluorenylmethoxycarbonyl)-DL-ornithine] | 
> 0.3 | Cc1ccc(S(=O)(=O)N(CC(C)C)C(CCCCN(CC(C)C)C(=O)CCc2ccccc2)C(=O)O)cc1 (racemic) [Compound No. 159, Nα,Nε-diisobutyl-Nα-(4-methylbenzenesulfonyl)-Nε-(3-phenylpropanoyl)-DL-lysine] | 
47 | COC(=O)[C@H](CCCCNS(=O)(=O)c1ccc(Br)cc1)NC(=O)OCC1c2ccccc2-c2ccccc21 [Compound No. 15, Nα-(9-fluorenylmethoxycarbonyl)-Nε-(4-bromobenzenesulfonyl)-L-lysine Methyl Ester] | 
13 | O=C(N[C@@H](CCCCNS(=O)(=O)c1ccc(Br)cc1)C(=O)O)OCC1c2ccccc2-c2ccccc21 [Compound No. 16, Nε-(4-bromobenzenesulfonyl)-Nα-(9-fluorenylmethoxycarbonyl)-L-lysine] | 
75 | O=C(N[C@@H](CNS(=O)(=O)c1ccc(Br)cc1)C(=O)O)OCC1c2ccccc2-c2ccccc21 [Compound No. 18, (S)-2-(9-fluorenylmethoxycarbonylamino)-3-(4-bromobenzenesulfonylamino)-propanoic Acid] | 
23 | NC(=O)C(CCCCNS(=O)(=O)c1ccc(Br)cc1)NC(=O)OCC1c2ccccc2-c2ccccc21 [Compound No. 20, (2R,2S)-(9-fluorenylmethoxycarbonylamino)-6-(4-bromobenzenesulfonylamino)-1-hexanamide] | 
> 6 | O=C(N[C@H](CO)CCCCNS(=O)(=O)c1ccc(Br)cc1)OCC1c2ccccc2-c2ccccc21 [Compound No. 22, (2S)-(9-fluorenylmethoxycarbonylamino)-6-(4-bromobenzenesulfonylamino)-1-hexanol] | 
> 50 | O=C(N[C@@H](CCCCNS(=O)(=O)c1ccc(Br)cc1)C(=O)O)c1cnc2cc(C(F)(F)F)ccc2c1O [Compound No. 23, Nα-(4-hydroxy-7-trifluoromethylquinoline-3-carbonyl)-Nε-(4-bromobenzenesulfonyl)-L-lysine] | 
36 | O=C(N[C@@H](CCCCNS(=O)(=O)c1ccccc1Br)C(=O)O)OCC1c2ccccc2-c2ccccc21 [Compound No. 24, Nε-(2-bromobenzenesulfonyl)-Nα-(9-fluorenylmcthoxycarbonyl)-L-lysine] | 
> 3.1 | CC(C)c1cc(C(C)C)c(S(=O)(=O)NCCCC[C@H](NC(=O)OCC2c3ccccc3-c3ccccc32)C(=O)O)c(C(C)C)c1 [Compound No. 25, Nε-(2,4,6-triisopropylbenzencsulfonyl)-Nα-(9-fluorenylmethoxycarbonyl)-L-lysine] | 
> 50 | Cc1cc(C)c(S(=O)(=O)NCCCC[C@H](NC(=O)OCC2c3ccccc3-c3ccccc32)C(=O)O)c(C)c1 [Compound No. 27, Nε-(2,4,6-trimethylbenzenesulfonyl)-Nα-(9-fluorenylmethoxycarbonyl)-L-lysine] | 
71 | O=C(CC1c2ccccc2-c2ccccc21)N[C@@H](CCCCNS(=O)(=O)c1ccc(Br)cc1)C(=O)O [Compound No. 30, Nα-(9-fluorenemethylcarbonyl)-Nε-(4-bromobenzenesulfonyl)-L-lysine] | 
10 | O=C(N[C@@H](CCCCNS(=O)(=O)c1ccc2ccccc2c1)C(=O)O)OCC1c2ccccc2-c2ccccc21 [Compound No. 32, Nε-(2-naphthalenesulfonyl)-Nα-(9-fluorenylmethoxycarbonyl)-L-lysine] | 
22 | O=C(N[C@@H](CCCCNS(=O)(=O)c1cccc(C(F)(F)F)c1)C(=O)O)OCC1c2ccccc2-c2ccccc21 [Compound No. 34, Nε-(3-trifluoromethylbenzenesulfonyl)-Nα-(9-fluorenylmethoxycarbonyl)-L-lysine] | 
33 | CC1(C)[C@@H]2CC[C@@]1(CS(=O)(=O)NCCCC[C@H](NC(=O)OCC1c3ccccc3-c3ccccc31)C(=O)O)C(=O)C2 [Compound No. 35, Nε-(1S)-(10-camphorsulfonyl)-Nα-(9-fluorenylmethoxycarbonyl)-L-lysine] | 
4.7 | O=C(N[C@@H](CCCCNS(=O)(=O)c1ccc(Br)cc1)C(=O)O)C1c2ccccc2-c2ccccc21 [Compound No. 38, Nα-(9-fluorenecarbonyl)-Nε-(4-bromobenzenesulfonyl)-L-lysine] | 
> 0.1 | Cc1cc(C)c(S(=O)(=O)N(CC(C)C)[C@@H](CCCCNC(=O)OCC2c3ccccc3-c3ccccc32)C(=O)O)c(C)c1 [Compound No. 42, Nα-isobutyl-Nα-(2,4,6-trimethylbenzenesulfonyl)-Nε-(9-fluorenylmethoxycarbonyl)-L-lysine] | 
0.0039 | Cc1ccc(S(=O)(=O)N(CC2CC2)[C@@H](CCCCNC(=O)OCC2c3ccccc3-c3ccccc32)C(=O)O)cc1 [Compound No. 43, Nα-cyclopropylmethyl-Nα-(4-methylbenzenesulfonyl)-Nε-(9-fluorenylmethoxycarbonyl)-L-lysine] | 
